Assay results taken from ChEMBL document CHEMBL1201862, “PubChem BioAssay data set” (2004).
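Values below derive from 48-hour exposures of cells grown in 96-well plates, with endpoints linearly interpolated between the two concentrations bracketing the appropriate inhibition level. Here, GI50 denotes the concentration required for 50% inhibition of growth.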 Activity calls are given as the source filed them. Rule as the data show it: active = GI50 up to about 1.1 µM and inactive = higher.

Assays:
Test in all cases: NCI anticancer screen, dose series, 48 h
[1] = test system: 786-0
[2] = test system: A498
[3] = test system: COLO 205
[4] = test system: HCT-15
[5] = test system: HOP-62
[6] = test system: K562
[7] = test system: KM12
[8] = test system: Malme-3M
[9] = test system: NCI-H23
[10] = test system: NCI-H522
[11] = test system: SF-268
[12] = test system: SK-MEL-28
[13] = test system: SN12C
[14] = test system: U-251
[15] = test system: UO-31
[16] = test system: UACC-257

SMILES	GI50 [1]	GI50 [2]	GI50 [3]	GI50 [4]	GI50 [5]	GI50 [6]	GI50 [7]	GI50 [8]	GI50 [9]	GI50 [10]	GI50 [11]	GI50 [12]	GI50 [13]	GI50 [14]	GI50 [15]	GI50 [16]
CCCn1c(SCC)c2ccccc2c1-c1nc(F)nc(F)n1	> 100 µM (inactive)	> 100 µM (inactive)	> 100 µM (inactive)	> 100 µM	> 100 µM (inactive)	> 100 µM (inactive)	> 100 µM (inactive)	> 100 µM (inactive)	> 100 µM (inactive)	> 100 µM (inactive)	> 100 µM (inactive)	> 100 µM (inactive)	> 100 µM (inactive)	> 100 µM (inactive)	> 100 µM (inactive)	–
Cc1ccc(S(=O)(=O)OC(c2ccc(Cl)cc2Cl)C2OC(=O)c3ccccc32)cc1 (stereo unspecified)	> 100 µM (inactive)	–	83.2 µM (inactive)	56.5 µM	> 100 µM (inactive)	33.6 µM (inactive)	36 µM (inactive)	> 100 µM (inactive)	> 100 µM (inactive)	57.9 µM (inactive)	51.3 µM (inactive)	> 100 µM (inactive)	> 100 µM (inactive)	56.4 µM (inactive)	27.4 µM (inactive)	–
Cn1cccc1/C=C/c1cc(Br)c(/C=C/c2cccn2C)cc1Br	6.12 µM (inactive)	21 µM (inactive)	13.2 µM (inactive)	8.75 µM	–	16.7 µM (inactive)	7.23 µM (inactive)	10.4 µM (inactive)	> 10 µM (inactive)	14.5 µM (inactive)	20.5 µM (inactive)	15.5 µM (inactive)	21 µM (inactive)	13 µM (inactive)	15.2 µM (inactive)	30.6 µM (inactive)
N#CCc1c(-c2ccccc2)n(S(=O)(=O)c2ccccc2)c2ccccc12	> 100 µM (inactive)	–	> 100 µM (inactive)	82.8 µM	36.1 µM (inactive)	46.9 µM (inactive)	> 100 µM (inactive)	> 100 µM (inactive)	33.7 µM (inactive)	> 10 µM (inactive)	> 100 µM (inactive)	> 100 µM (inactive)	–	> 100 µM (inactive)	14.8 µM (inactive)	> 100 µM (inactive)
Cc1cc2c(cc1C)[n+]([O-])c(C(=O)C/C(=N/OCCCc1ccccc1)C(=O)Nc1cc(Cl)ccc1Cl)c(C)[n+]2[O-]	> 100 µM (inactive)	> 100 µM (inactive)	> 100 µM (inactive)	> 100 µM	> 100 µM (inactive)	> 100 µM (inactive)	> 100 µM (inactive)	> 100 µM (inactive)	> 100 µM (inactive)	> 100 µM (inactive)	> 100 µM (inactive)	> 100 µM (inactive)	> 100 µM (inactive)	> 100 µM (inactive)	–	> 100 µM (inactive)
NNC(=S)N/N=C/C(Cl)=C(\Cl)C(=O)O	> 100 µM (inactive)	> 100 µM (inactive)	–	> 100 µM	–	> 100 µM (inactive)	–	> 100 µM (inactive)	> 100 µM (inactive)	0.228 µM (active)	> 100 µM (inactive)	> 100 µM (inactive)	> 100 µM (inactive)	> 100 µM (inactive)	> 100 µM (inactive)	> 100 µM (inactive)
C/C(CC(=O)Nc1ccc(C)cc1)=N\NC(N)=S	> 100 µM (inactive)	> 100 µM (inactive)	> 100 µM (inactive)	–	> 100 µM (inactive)	64.4 µM (inactive)	77.4 µM (inactive)	> 100 µM (inactive)	> 100 µM (inactive)	94 µM (inactive)	> 100 µM (inactive)	> 100 µM (inactive)	–	> 100 µM (inactive)	> 100 µM (inactive)	> 100 µM (inactive)
[N-]=[N+]=NC1(Cc2ccccc2)C(=O)c2cccc3c2N(CCC3)C1=O (stereo unspecified)	> 100 µM (inactive)	–	> 100 µM (inactive)	> 100 µM	> 100 µM (inactive)	> 100 µM (inactive)	> 100 µM (inactive)	> 100 µM (inactive)	> 100 µM (inactive)	> 100 µM (inactive)	> 100 µM (inactive)	> 100 µM (inactive)	> 100 µM (inactive)	> 100 µM (inactive)	> 100 µM (inactive)	> 100 µM (inactive)
CC(=O)OCCOCn1c2ccccc2c2c3c(c4c5ccccc5n(COCCOC(C)=O)c4c21)C(=O)N(Cc1ccccc1)C3=O	> 100 µM (inactive)	> 100 µM (inactive)	> 100 µM (inactive)	> 100 µM	> 100 µM (inactive)	> 100 µM (inactive)	–	> 100 µM (inactive)	> 100 µM (inactive)	–	> 100 µM (inactive)	> 100 µM (inactive)	> 100 µM (inactive)	> 100 µM (inactive)	> 100 µM (inactive)	> 100 µM (inactive)
COC1(OC)CC2OC1C1N=NN(C(=O)OC(C)(C)C)C21 (stereo unspecified)	> 100 µM (inactive)	> 100 µM (inactive)	> 100 µM (inactive)	43.7 µM	> 100 µM (inactive)	36 µM (inactive)	> 100 µM (inactive)	> 100 µM (inactive)	> 100 µM (inactive)	–	> 100 µM (inactive)	> 100 µM (inactive)	> 100 µM (inactive)	> 100 µM (inactive)	> 100 µM (inactive)	> 100 µM (inactive)
O=C1CC(c2c(-c3ccccc3)[nH]c3ccccc23)C(=O)N1c1ccccc1 (stereo unspecified)	> 100 µM (inactive)	> 100 µM (inactive)	–	61.8 µM	25.6 µM (inactive)	57.1 µM (inactive)	44.4 µM (inactive)	> 100 µM (inactive)	78.7 µM (inactive)	–	–	> 100 µM (inactive)	–	88.9 µM (inactive)	25.4 µM (inactive)	> 100 µM (inactive)
O=C1C2C3C=C4c5ccccc5N(c5ccccc5)C4(C2C(=O)N1c1ccccc1)C1C(=O)N(c2ccccc2)C(=O)C31 (stereo unspecified)	> 100 µM (inactive)	2.34 µM (inactive)	35.6 µM (inactive)	> 100 µM	> 100 µM (inactive)	> 100 µM (inactive)	> 100 µM (inactive)	7.67 µM (inactive)	> 100 µM (inactive)	–	> 100 µM (inactive)	8.17 µM (inactive)	> 100 µM (inactive)	> 100 µM (inactive)	> 100 µM (inactive)	42.8 µM (inactive)
O=C1c2c(c3c4ccccc4n4c3c3c2c2ccccc2n3C/C=C\C4)C(=O)N1Cc1ccccc1	> 100 µM (inactive)	> 100 µM (inactive)	> 100 µM (inactive)	> 100 µM	> 100 µM (inactive)	> 100 µM (inactive)	> 100 µM (inactive)	> 100 µM (inactive)	> 100 µM (inactive)	> 100 µM (inactive)	–	> 100 µM (inactive)	> 100 µM (inactive)	46.5 µM (inactive)	> 100 µM (inactive)	> 100 µM (inactive)
Cc1[nH]c2ccccc2c1C1Cc2ccccc2N1C(=O)/C=C\C(=O)O (stereo unspecified)	38.7 µM (inactive)	32.1 µM (inactive)	30.4 µM (inactive)	> 100 µM	31.3 µM (inactive)	35.6 µM (inactive)	32.6 µM (inactive)	73.3 µM (inactive)	56.4 µM (inactive)	27.6 µM (inactive)	36.3 µM (inactive)	–	29.3 µM (inactive)	29.5 µM (inactive)	> 100 µM (inactive)	19 µM (inactive)
